Common to all, as to format: functional
Assay [1] deals with Aspergillus fumigatus. The assay can be described thus: Antifungal activity against Aspergillus fumigatus.
The test system of assay [2] is Candida tropicalis. The experiment in a line: Antifungal activity against drug-resistant Candida tropicalis.
Assay [3] deals with Staphylococcus aureus. The assay can be described thus: Antibacterial activity against methicillin-resistant Staphylococcus aureus N315 by microbroth dilution method. Background: Broth dilution looks for growth in wells or tubes with falling amounts of substance.
Assay [4] has as its system Staphylococcus aureus. The assay can be described thus: Antibacterial activity against Staphylococcus aureus ATCC 29213 by microbroth dilution method.
For assay [5], the system named is Candida parapsilosis. The experiment in a line: Antifungal activity against Candida parapsilosis ATCC 22019. The following applies: Lodderomyces parapsilosis.
For assay [6], the system named is Staphylococcus aureus. The assay can be described thus: Antibacterial activity against drug-resistant Staphylococcus aureus by microbroth dilution method.
The subject of assay [7] is Escherichia coli. The assay can be described thus: Antibacterial activity against drug-resistant Escherichia coli by microbroth dilution method.
Assay [8] relates to Acinetobacter baumannii. The assay can be described thus: Antibacterial activity against Acinetobacter baumannii by microbroth dilution method.
In assay [9] the test system is Pseudomonas aeruginosa. The assay can be described thus: Antibacterial activity against Pseudomonas aeruginosa by microbroth dilution method.
Assay [10] deals with Candida albicans. The experiment in a line: Antifungal activity against drug-resistant Candida albicans.
Assay [11] concerns Escherichia coli. The assay can be described thus: Antibacterial activity against Escherichia coli ATCC 25922 by microbroth dilution method.
Assay [12] deals with Candida albicans. The assay can be described thus: Antifungal activity against Candida albicans ATCC 90023.
The subject of assay [13] is Staphylococcus aureus. The assay can be described thus: Antibacterial activity against Staphylococcus aureus ATCC 25923 by microbroth dilution method.
The subject of assay [14] is Pseudomonas aeruginosa. The experiment in a line: Antibacterial activity against Pseudomonas aeruginosa ATCC 27853 by microbroth dilution method.
Assay [15] has as its system Enterococcus faecalis. The experiment in a line: Antibacterial activity against drug-resistant Enterococcus faecalis by microbroth dilution method.
Assay [16] has as its system Klebsiella pneumoniae. The assay can be described thus: Antibacterial activity against Klebsiella pneumoniae by microbroth dilution method.
Assay [17] has as its system Staphylococcus aureus. The experiment in a line: Induction of resistance development in Staphylococcus aureus measured after 4 passages.

Data on 7 compounds can be found in ChEMBL document CHEMBL5584255, “Synthesis and antibacterial medicinal evaluation of carbothioamido hydrazonyl thiazolylquinolone with multitargeting antimicrobial potential to combat increasingly global resistance” (Eur J Med Chem, 2024).

Converted amounts (≈) assume the structure as drawn. The source made the active and inactive calls. The rule behind the calls is not given here.

Take `Nc1nc(-c2c[nH]c3ccc(F)cc3c2=O)cs1`: the minimum inhibitory concentration (MIC) (in general, the least concentration at which growth counts as inhibited) was 245 µM (≈ 64 µg/mL) in assay [1]; 490 µM (≈ 128 µg/mL) in [2]; 490 µM (≈ 128 µg/mL) in assay [3]; 490 µM (≈ 128 µg/mL) in assay [4]; 245 µM (≈ 64 µg/mL) in assay [5]; 490 µM (≈ 128 µg/mL) in [6]. The minimal inhibitory concentration (MIC) was found to be 490 µM (≈ 128 µg/mL) in [7]; 490 µM (≈ 128 µg/mL) in [8]; 981 µM (≈ 256 µg/mL) in assay [9]; 245 µM (≈ 64 µg/mL) in [10]; 490 µM (≈ 128 µg/mL) in [11]; 61 µM (≈ 15.9 µg/mL) in [12]. For the same compound, the MIC was found to be 490 µM (≈ 128 µg/mL) in assay [13], 245 µM (≈ 64 µg/mL) in [14], 490 µM (≈ 128 µg/mL) in assay [15] and 490 µM (≈ 128 µg/mL) in [16].

Regarding `CCn1cc(C(=O)O)c(=O)c2cc(F)c(N3CCNCC3)cc21` [NORFLOXACIN], the minimum inhibitory concentration (MIC) came out at 25 µM (≈ 7.98 µg/mL) in assay [3]; 3 µM (≈ 0.958 µg/mL) in assay [4]; 25 µM (≈ 7.98 µg/mL) in assay [6]; 1600 µM (≈ 512 µg/mL) in [7]; 802 µM (≈ 256 µg/mL) in [8]; 1600 µM (≈ 512 µg/mL) in [9]. In addition, the minimal inhibitory concentration (MIC) amounted to 25 µM (≈ 7.98 µg/mL) in [11]; 2 µM (≈ 0.639 µg/mL) in assay [13]; 50 µM (≈ 16 µg/mL) in assay [14]; 802 µM (≈ 256 µg/mL) in assay [15]; 802 µM (≈ 256 µg/mL) in assay [16]. Besides, in [17], the outcome was inactive.

On to `C/C(Cn1cc(-c2csc(N)n2)c(=O)c2cc(F)c(F)cc21)=N\NC(N)=S`, for which the MIC came out at 314 µM (≈ 128 µg/mL) in assay [1]; 1260 µM (≈ 513 µg/mL) in assay [2]; 78 µM (≈ 31.9 µg/mL) in assay [3]; 39 µM (≈ 15.9 µg/mL) in assay [4]; 1260 µM (≈ 513 µg/mL) in [5]; 78 µM (≈ 31.9 µg/mL) in assay [6]. The MIC in assay [7] worked out at 627 µM (≈ 256 µg/mL); in [8], 314 µM (≈ 128 µg/mL); in assay [9], 314 µM (≈ 128 µg/mL); in assay [10], 1260 µM (≈ 513 µg/mL); in assay [11] it was 314 µM (≈ 128 µg/mL); in [12], 314 µM (≈ 128 µg/mL). The minimum inhibitory concentration (MIC) was determined as 78 µM (≈ 31.9 µg/mL) in [13], 314 µM (≈ 128 µg/mL) in [14], 627 µM (≈ 256 µg/mL) in assay [15] and 627 µM (≈ 256 µg/mL) in assay [16].

Regarding `CC(=O)Cn1cc(-c2csc(C)n2)c(=O)c2cc(F)c(F)cc21`, the MIC in [1] was 766 µM (≈ 256 µg/mL); in assay [2], 766 µM (≈ 256 µg/mL); in [3] it was 1530 µM (≈ 513 µg/mL); in assay [4], 766 µM (≈ 256 µg/mL); in assay [5], 1530 µM (≈ 513 µg/mL); in assay [6], 766 µM (≈ 256 µg/mL). Besides, the minimal inhibitory concentration (MIC) in assay [7] worked out at 1530 µM (≈ 513 µg/mL); in assay [8] it was 1530 µM (≈ 513 µg/mL); in [9], 1530 µM (≈ 513 µg/mL); in assay [10] it was 1530 µM (≈ 513 µg/mL); in assay [11], 1530 µM (≈ 513 µg/mL); in [12] it was 766 µM (≈ 256 µg/mL). Further, the minimal inhibitory concentration (MIC) in [13] came out at 766 µM (≈ 256 µg/mL); in assay [14], 1530 µM (≈ 513 µg/mL); in [15], 1530 µM (≈ 513 µg/mL); in [16] it was 766 µM (≈ 256 µg/mL).

Take `C/C(Cn1cc(-c2csc(C)n2)c(=O)c2cc(F)c(F)cc21)=N\NC(N)=S`: the minimum inhibitory concentration (MIC) in assay [1], in [2], in assay [3], in assay [4], in assay [5] and in assay [6] was 1260 µM (≈ 513 µg/mL) throughout. The MIC in [7] was found to be 1260 µM (≈ 513 µg/mL); in assay [8], 314 µM (≈ 128 µg/mL); in assay [9], 314 µM (≈ 128 µg/mL); in [10], 1260 µM (≈ 513 µg/mL); in [11], 1260 µM (≈ 513 µg/mL); in [12], 1260 µM (≈ 513 µg/mL). Further, the MIC stood at 1260 µM (≈ 513 µg/mL) in assay [13], 314 µM (≈ 128 µg/mL) in [14], 629 µM (≈ 256 µg/mL) in assay [15] and 1260 µM (≈ 513 µg/mL) in [16].

As for `Nc1nc(Cn2cc(-c3csc(N)n3)c(=O)c3cc(F)c(Cl)cc32)cs1`, the minimal inhibitory concentration (MIC) turned out to be 315 µM (≈ 128 µg/mL) in [1]; 315 µM (≈ 128 µg/mL) in [2]; 315 µM (≈ 128 µg/mL) in assay [3]; 20 µM (≈ 8.16 µg/mL) in assay [4]; 79 µM (≈ 32.2 µg/mL) in [5]; 39 µM (≈ 15.9 µg/mL) in assay [6]. Also, the MIC in [7] was determined as 157 µM (≈ 64 µg/mL); in assay [8], 157 µM (≈ 64 µg/mL); in assay [9], 157 µM (≈ 64 µg/mL); in assay [10], 157 µM (≈ 64 µg/mL); in [11], 20 µM (≈ 8.16 µg/mL); in [12], 39 µM (≈ 15.9 µg/mL). Further, the MIC was found to be 39 µM (≈ 15.9 µg/mL) in assay [13], 39 µM (≈ 15.9 µg/mL) in [14], 315 µM (≈ 128 µg/mL) in [15] and 315 µM (≈ 128 µg/mL) in assay [16].

On to `C/C(Cn1cc(-c2csc(C)n2)c(=O)c2cc(F)cc(F)c21)=N\NC(N)=S`, for which the MIC in assay [1] is 629 µM (≈ 256 µg/mL); in assay [2], 1260 µM (≈ 513 µg/mL); in assay [3], 1260 µM (≈ 513 µg/mL); in assay [4], 629 µM (≈ 256 µg/mL); in assay [5] it was 157 µM (≈ 64 µg/mL); in assay [6], 1260 µM (≈ 513 µg/mL). Moreover, the MIC in assay [7] was determined as 1260 µM (≈ 513 µg/mL); in assay [8], 629 µM (≈ 256 µg/mL); in assay [9] it was 629 µM (≈ 256 µg/mL); in [10], 1260 µM (≈ 513 µg/mL); in assay [11], 1260 µM (≈ 513 µg/mL); in assay [12] it was 1260 µM (≈ 513 µg/mL). The MIC in [13] is 1260 µM (≈ 513 µg/mL); in [14] it was 629 µM (≈ 256 µg/mL); in assay [15], 1260 µM (≈ 513 µg/mL); in assay [16] it was 314 µM (≈ 128 µg/mL).
